We go through 4 compounds from PMC5762908 (Scientific Reports, 2018).

For test [1], the system named is MRC-5 (human lung fibroblast). As to the kind of experiment: Cytotoxic activity, alamar blue assay, MRC-5 non-cancer cells. It counts as cell-based. A general note: Alamar Blue is a resazurin reagent that responds to reducing activity.
The test system of test [2] is PBMC (human peripheral blood mononuclear cells). The test can be described thus: Cytotoxic activity, alamar blue assay, PBMC non-cancer cells. Type of test: cell-based. The note with it: 72 h incubation.
Test [3] has as its system BAD KO SV40 MEF (BAD gene knockout immortalized mouse embryonic fibroblast). The test can be described thus: Cytotoxic activity, alamar blue assay, BAD KO SV40 MEF. It counts as cell-based. The note with it: 72 h incubation.
Test [4] relates to WT SV40 MEF (wild-type immortalized mouse embryonic fibroblast). As to the kind of experiment: Cytotoxic activity, alamar blue assay, WT SV40 MEF. It counts as cell-based. The note with it: 72 h incubation.
A further test has as its system advanced CRC. The note with it: cited from earlier work.
The subject of the next test is calf thymus DNA (ctDNA). As to the kind of experiment: DNA intercalation assay, ethidium bromide displacement. Type of test: binding. Particulars: complex 5, 10 and 20 µM; doxorubicin 10 µM; data not shown. As to the method:
DNA intercalation was assessed by examining the ability of the complex to displace ethidium bromide from ctDNA (Sigma-Aldrich Co.)[32]. The DNA intercalation assay was conducted in 96-well plate (100 µL) and contained 15 µg/mL ctDNA, 1.5 µM ethidium bromide and 5, 10 and 20 µM of complex in saline solution. The vehicle (0.1% DMSO) used for diluting the compound tested was used as the negative control. Doxorubicin (10 µM) was used as the positive control. Fluorescence was measured using excitation and emission wavelengths of 320 nm and 600 nm, respectively using the spectraMax Microplate Reader (Molecular Devices).

Setting [5] is: Homo sapiens, MRC5, 72 h incubation.

Where two headings read alike, the source gives them in different places.

The IC50 is the concentration that gives 50% inhibition. Low readings indicate inhibition by little substance, high ones a need for much substance. With `O=c1[nH]cc(F)c(=O)[nH]1` [5-FU, 5-fluorouracil], the half-inhibitory concentration (IC50) in test [1] (setting [5]) amounted to 57.9 µM; in test [2] (Homo sapiens, PBMC) it was 78 µM; in test [3] (Mus musculus, Fibroblast), 7.3 µM; in test [4] (Mus musculus, Fibroblast), 1.7 µM. Moreover, the Response rates was 10–15% with advanced CRC (5-FU as a monotherapy); 40–50% in the test with advanced CRC (5-FU combined with irinotecan and oxaliplatin).

In the case of `COc1cccc2c1C(=O)c1c(O)c3c(c(O)c1C2=O)C[C@@](O)(C(=O)CO)C[C@@H]3O[C@H]1C[C@H](N)[C@H](O)[C@H](C)O1` [DOX, Doxorubicin], the IC50 in test [1] (setting [5]) is 1.6 µM; in test [2] (Homo sapiens, PBMC), 5.1 µM; in test [3] (Mus musculus, Fibroblast), 0.4 µM; in test [4] (Mus musculus, Fibroblast), 0.03 µM. In addition, the “Ethidium bromide fluorescence (displacement from ctDNA)” value in the test on calf thymus DNA (ctDNA) is given as “reduced the fluorescence intensity of ethidium bromide”.

`O=C1[O][Pt]2([NH][C@@H]3CCCC[C@H]3[NH]2)[O]C1=O` [OXA, oxaliplatin]: the values for the 50% inhibitory concentration (IC50) in test [1] (72 h incubation) and in test [2] were 1.4 µM and 12.4 µM, respectively.

Turning to [Ru(5-FU)(PPh3)2(bipy)]PF6 [RU/5-FU], the half-inhibitory concentration (IC50) in test [1] (72 h incubation) is 9.5 µM; in test [2], 5.7 µM; in test [3] it was 1.8 µM; in test [4], 1.9 µM. The “Ethidium bromide fluorescence (displacement from ctDNA)” value in the test on calf thymus DNA (ctDNA) is “did not decrease the ethidium bromide fluorescence”.
